Results as given in PubChem BioAssay AID464 (The Scripps Research Institute Molecular Screening Center, 2006).
The source made the active and inactive calls.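 Rule for the calls: active = Compounds that kill half the cells at a concentration of 5 micromolar or below, from the fitted or estimated CC50; inactive = CC50 above 5 micromolar.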

Each compound was assayed on Jurkat E6.1 viability, ATP luminescence, 48 h (assay: Jurkat E6.1 cell cytotoxicity, CC50 determination, dose response, cytotoxicity control, ATP luminescence, 48 h, 60K MLSMR (AID 464)).

SMILES | CC50
CCN1CCN(c2ncc3c(n2)CC(c2cc(OC)c(OC)c(OC)c2)CC3=O)CC1 (stereo not given) | 2.26 µM
COc1cc(NS(=O)(=O)c2ccc(C)cc2C)cc(OC)c1OC | 9.46 µM (inactive)
CCOc1cc(C(=O)N2CCc3cc(OC)c(OC)cc3C2)ccc1OC(F)F | 0.366 µM
Cc1cc(NO)nc(-c2ccc(Br)cc2)n1 | > 40 µM (inactive)
COc1cc(N=Cc2c(O)[nH]c3ccccc23)cc(OC)c1OC | 1.58 µM
CCOC(=O)/C=C/S(=O)(=O)c1ccc(NC(C)=O)cc1 | 3.21 µM
Cc1c(C(=O)N2CCCCC2)oc2ccc(S(=O)(=O)N3CC(C)CC(C)C3)cc12 (stereo not given) | 15.9 µM (inactive)
N#C/C(=C/c1ccc(N2CCCCCC2)o1)c1ccc(F)cc1 | > 13 µM (inactive)
O=C(Nc1ccc(Cl)cn1)c1cccc(F)c1 | > 4.4 µM (inactive)
Clc1ccc(Cn2ncc3c(NCc4ccco4)ncnc32)c(Cl)c1 | 3.8 µM
O=S1(=O)C=C(Sc2nc3ccccc3s2)c2ccccc21 | 0.647 µM
CCOC(=O)c1[nH]c(C)c(C(=O)Nc2ccc(C)cc2C)c1C | 1.64 µM
Cc1cc(N2CCN(C/C=C/c3ccccc3)CC2)n2ncnc2n1 | > 40 µM (inactive)
CCCc1ccc(-c2ccc(F)c(N)c2)nc1 | > 40 µM (inactive)
COc1cccc(C2=CC(c3cc(OC)ccc3OC)n3nnnc3N2)c1 (stereo not given) | 11.7 µM (inactive)
O=c1cc(Nc2ccc3c(c2)OCCO3)[nH]c(=O)n1C1CCCCC1 | 11.7 µM (inactive)
COC(=O)C1=C(N)Oc2cc(N(C)C)ccc2C1c1ccccc1OC (stereo not given) | 2.6 µM
COc1ccc(CC(=O)Nc2nc(C)cs2)cc1OC | 23.4 µM (inactive)
CC(=O)Nc1ccc(S(=O)(=O)N2CCCc3ccccc32)cc1 | 3.07 µM
Cc1cc(N2CCN(c3nc4ccccc4s3)CC2)n2ncnc2n1 | 8.41 µM (inactive)
CCCCCCc1ccc(-c2ncc(N)cn2)cc1 | 28.5 µM (inactive)
Cc1ccccc1S(=O)(=O)Cc1ccc(C(=O)N2CCN(c3cccc(C)c3C)CC2)o1 | 2.27 µM
CCOC(=O)CS(=O)(=O)c1nc(-c2ccc(F)cc2)cc(C(F)(F)F)n1 | 3.81 µM
COc1ccc(Nc2nc(N3CCCC3)nc3ccccc23)c(OC)c1 | 21.9 µM (inactive)
CCOC(=O)C1CCCN(C(=O)c2cc3c(-c4cccc(OC)c4)nn(C)c3s2)C1 (stereo not given) | 9.76 µM (inactive)
CCOc1ccc(-c2[nH]ncc2-c2ccc(OC)c(OC)c2)c(O)c1 | 1.21 µM
CCc1nnc(NC(=O)CSc2nnc(-c3ccccc3O)n2-c2ccc(C)cc2C)s1 | 4.43 µM

SMILES | CC50
COc1ccccc1N1CCN(c2nc(C)nc3c2oc2ccccc23)CC1 | 1.04 µM
COC(=O)c1cc2ccsc2n1CC(=O)Nc1cc(Cl)ccc1OC | > 4.4 µM (inactive)
O=C1CCCN1c1ccc(S(=O)(=O)Nc2ccc3c(c2)OCCO3)cc1 | 1.78 µM
Cc1cc(C(=O)OCC(=O)NCc2ccco2)c(C)n1-c1ccc(F)cc1 | 2.34 µM
CCCNc1nc2c(c(=O)n(C)c(=O)n2C)n1CCC(C)C | 11.9 µM (inactive)
Cc1ccc(C)c(S(=O)(=O)Nc2ccc3scnc3c2)c1 | 3.08 µM
CC1=C(C(=O)OCc2ccc3c(c2)OCO3)C(c2ccc(Cl)cc2)NC(=O)N1 (stereo not given) | 12.6 µM (inactive)
COc1ccc(-c2cc(N)n(S(=O)(=O)c3c(F)c(F)c(F)c(F)c3F)n2)cc1OC | 2.01 µM
COc1ccc(CCNc2c(C)c(C)nc3ncnn23)cc1 | > 13 µM (inactive)
Cc1onc(-c2ccccc2Cl)c1C(=O)N1CCN(c2cccc(Cl)c2)CC1 | 0.832 µM
Cc1ccccc1OCC(=O)Nc1ccc(N2CCN(C(=O)C(C)C)CC2)c(Cl)c1 | > 40 µM (inactive)
O=C(c1ccncc1)N(Cc1cc2ccccc2[nH]c1=O)C1CCCCC1 | 5.31 µM (inactive)
O=C(Nc1ccc(SC(F)F)cc1)c1ccc2nccnc2c1 | 13.1 µM (inactive)
CCCc1[nH]nc2c1C(c1ccc(Br)s1)C(C#N)=C(N)O2 (stereo not given) | > 13 µM (inactive)
O=C(NCc1cccnc1)NC1(C(F)(F)F)Oc2ccc(Cl)cc2O1 (stereo not given) | 8.08 µM (inactive)
CCc1nnc(NC(=O)c2ccc(S(=O)(=O)N(CC)Cc3ccccc3)cc2)o1 | 26 µM (inactive)
COCCOC(=O)c1[nH]c2c(c1C)C(=O)CC(c1cc(OC)ccc1OC)C2 (stereo not given) | 4.2 µM
Cc1ccc(-c2csc3ncnc(Sc4nnc(CN5CCCCCC5=O)o4)c23)cc1 | 5.28 µM (inactive)
O=C(Nc1cc(N2CCOCC2)ncn1)NC1(C(F)(F)F)Oc2ccc(Cl)cc2O1 (stereo not given) | 4.81 µM
CC(=O)Nc1ccc(S(=O)(=O)n2cnc3cc(C)c(C)cc32)cc1 | 24.8 µM (inactive)
Cc1cc(NC(=O)CCS(=O)(=O)c2nc(-c3ccccc3)cc(C(F)(F)F)n2)no1 | 5.13 µM (inactive)
Cc1cccc(OCC(=O)Nc2cc(C)ccc2O)c1 | 5.78 µM (inactive)
CCN(CC)S(=O)(=O)c1cccc(C(=O)Nc2nc3cc4c(cc3s2)OCCO4)c1 | 12.8 µM (inactive)
COc1cc2c(cc1OC)CN(C(=O)c1cc3ccccc3oc1=O)CC2 | 5.04 µM (inactive)
Cc1cc(C(=O)CSc2nnc(-c3cccc(F)c3)n2N)c(C)n1Cc1ccc2c(c1)OCO2 | 9.37 µM (inactive)
COc1cc2c(cc1OC)C(C)N(C(=O)c1cc3ccccc3o1)CC2 (stereo not given) | 24.4 µM (inactive)
CCC/C(O)=C1\C(=O)CC(C)(C)CC1=Nc1ccc(OC)cc1OC | 1.78 µM

SMILES | CC50
COc1ccccc1C(=O)N1CCN(c2cccc(C(F)(F)F)c2)CC1 | 2.09 µM
COc1ccc(-c2nnc(SCC(=O)Nc3ncc(C)s3)n2-c2ccccc2)cc1OC | 9.26 µM (inactive)
CCCCOc1ccccc1C1CC(=O)NC2=C1C(=O)CCC2 (stereo not given) | 0.872 µM
CC1CC(C)CN(S(=O)(=O)c2ccc(C(=O)Nc3nnc(-c4cccs4)o3)cc2)C1 (stereo not given) | 12.9 µM (inactive)
Cc1noc(C)c1CSc1nc2ccccc2nc1NS(=O)(=O)c1ccc(Cl)cc1 | 31.5 µM (inactive)
O=C(CSc1nnnn1-c1ccc2c(c1)OCO2)NCc1ccccc1 | > 4.4 µM (inactive)
COc1cc(NS(=O)(=O)c2ccc(C)cc2)c2ncccc2c1 | 10.1 µM (inactive)
COc1cc(CSc2nnnn2-c2ccc(C)cc2)cc(OC)c1OC | 2.38 µM
COc1ccc(-c2n[nH]c(C)c2-c2ccc(OC)c(OC)c2)c(O)c1 | > 4.4 µM (inactive)
Cc1noc(C)c1COc1cccc(C(=O)OCC(=O)N2CC(=O)Nc3ccccc32)c1 | 6.33 µM (inactive)
CCCOc1ccc2ccccc2c1/C=N/n1c(C)nnc1-n1nc(C)cc1C | 1.96 µM
Cn1c(C(=O)NCCc2c[nH]c3ccccc23)cc2sccc21 | > 40 µM (inactive)
COc1cccc(C2C=C(c3ccc(OC)cc3OC)Nc3nnnn32)c1 (stereo not given) | 18.4 µM (inactive)
CC(=O)Oc1ccc(Oc2ccc(-c3noc(C)n3)cc2)cc1 | > 40 µM (inactive)
COc1cccc(C(=O)/C=C/Nc2cc(C)ccc2O)c1 | 2.95 µM
COc1ccc(OC)c(C2CC(=O)c3c([nH]c(C(=O)OC(C)C)c3C)C2)c1 (stereo not given) | 1.08 µM
Cc1cc(C(=O)N2CCN(c3cccc(Cl)c3)CC2)c(C)o1 | 4.95 µM
Cc1nn(-c2ccccc2)c(C)c1C(=O)Nc1nnc(-c2ccco2)o1 | > 40 µM (inactive)
COc1ccc(S(=O)(=O)Cc2ccc(C(=O)N3CCN(c4cccc(C)c4)C(C)C3)o2)cc1 (stereo not given) | 1.6 µM
CCCCN(C)S(=O)(=O)c1ccc(C(=O)Nc2nnc(CSC)o2)cc1 | 27.9 µM (inactive)
O=C(Nc1nc(-c2ccc3c(c2)OCCO3)cs1)c1ccc(S(=O)(=O)N2CCCCC2)cc1 | 8.3 µM (inactive)
OC1(c2cccc(C(F)(F)F)c2)CCN(c2ncnc3c2[nH]c2ccc(F)cc23)CC1 | 14.4 µM (inactive)
Cc1cc(NC(=O)c2cc(-c3ccncc3)nc3c(C)cccc23)no1 | 2.29 µM
N#Cc1nc(N2CCCCC2)nc(N2CCOCC2)n1 | 12.9 µM (inactive)
COc1ccccc1N1CCN(C(=O)c2c(-c3ccccc3)noc2C)CC1 | 2.92 µM
O=C(Nc1nnc(-c2cccs2)o1)c1cccc(F)c1 | 21.7 µM (inactive)
COc1ccccc1NC(=O)Cc1nn(C)c(=O)c2ccccc12 | 3.35 µM

SMILES | CC50
CCOc1ccccc1C(=O)N1CCN(c2cccc(Cl)c2)CC1 | 0.095 µM
COc1cc(NC(=O)c2ccc3c(c2)OCO3)ccc1NC(=O)C(C)C | 2.19 µM
CCOC(=O)C1(Nc2nccs2)Sc2ccccc2NC1=O (stereo not given) | 3.66 µM
COc1ccccc1-c1cc(C(F)(F)F)nc(S(=O)(=O)CCCC(=O)N2CCOCC2)n1 | 2.22 µM
CCN(CC)c1ccc(NC(=O)c2ccccc2F)cc1 | > 4.4 µM (inactive)
CCc1ccc2oc(-c3cc(N)cc(C)c3O)nc2c1 | > 13 µM (inactive)
CCOC(=O)c1[nH]c(C)c(C(=O)Nc2cc(OC)ccc2OC)c1C | 0.458 µM
c1ccc(-c2noc(-c3ccc4c(c3)OCO4)n2)nc1 | 2.75 µM
O=C(CSc1n[nH]c(-c2ccccc2O)n1)N1CCCc2ccccc21 | 9.5 µM (inactive)
OCCN1CCN(C(c2cccs2)c2ccc3cccnc3c2O)CC1 (stereo not given) | 13.5 µM (inactive)
O=C(c1ccco1)N1CCN(C(=O)N2c3ccccc3Sc3ccccc32)CC1 | 0.099 µM
CC(C)Oc1ccccc1C1CC(=O)Nc2cc3c(cc21)OCO3 (stereo not given) | 0.812 µM
Cc1nc(NC(C)c2ccccc2)c2oc3ccccc3c2n1 (stereo not given) | 18.6 µM (inactive)
Cc1ccsc1C=Nc1ccc(O)cc1 | 39.3 µM (inactive)
CC1=C(C(=O)OCc2ccc3c(c2)OCO3)C(c2ccc(F)cc2)NC(=O)N1 (stereo not given) | 3.57 µM
Cc1onc(-c2ccccc2)c1C(=O)Nc1sc2c(c1C#N)CCC2 | 15 µM (inactive)
CSC1=C(C#N)C(c2ccc(Cl)cc2)C2=C(CC(C)(C)CC2=O)N1 (stereo not given) | 14.7 µM (inactive)
CCOc1ccccc1CN(Cc1ccco1)S(=O)(=O)c1ccc(-n2cnnn2)c(OC)c1 | 4.22 µM
COc1cccc(-c2cc(C(=O)Nc3cccc(O)c3)no2)c1 | > 40 µM (inactive)
CCn1ncc(C2=NOC(C(=O)NCc3ccc(Cl)cc3)C2)c1C (stereo not given) | 1.61 µM
Oc1c(C(Nc2nc3ccccc3s2)c2ccco2)ccc2cccnc12 (stereo not given) | 7.79 µM (inactive)
O=c1oc2ccccc2cc1NCc1ccccc1O | > 40 µM (inactive)
CCOC(=O)c1[nH]c2c(c1C)C(=O)CC(c1ccc(F)cc1)C2 (stereo not given) | 0.708 µM
COc1cc(-c2nnc3n2N=C(c2ccccc2)CS3)cc(OC)c1OC | 0.392 µM
